Measured values: US9540325B2, “N1-cyclic amine-N5-substituted phenyl biguanide derivatives, methods of preparing the same and pharmaceutical composition comprising the same” (Immunomet Therapeutics, Inc., priority 2011, dated 2017)

Tests used:
HCT116 cells = assay: Measurement of effect of inhibiting cancer cell proliferation (MTT); type: cell-based, human; details: Homo sapiens; for inhibition at 100 µM: HCT-116, 100 μM, 48 hours, read-out: Cell Growth Inhibition (%) at 100 μM; for GI50: HCT-116, 48 h
Description: HCT116 cells derived from human colorectal cancer (commercially available from the Korean Cell Line Bank) were used, and the effect of inhibiting cancer cell proliferation of the biguanide derivative was confirmed by measuring the concentration value (cell growth inhibition concentration, GIC50) at which cell growth was inhibited by 50% using a 3-(4,5-dimethylthiazol-2-yl)-2,5-diphenyltetrazolium bromide (MTT) reagent.
First, HCT116 cells were put on a 96-well plate and cultured in a DMEM medium containing 10% fetal bovine serum for 16 hours so that the cellcount in each well was approximately 5,000. Subsequently, to obtain the GIC50 value of each compound, culture media were treated with 100 μM, 25 μM, 6.25 μM, 1.56 μM or 0.39 μM of the compound, and then cultured for 48 hours. Metformin hydrochloride was used as the control, and the culture media were treated with 25, 12.5, 2.5, 0.5, 0.1 mM metformin hydrochloride, and then tested in the same manner as described in the derivatives synthesized in the examples. In order to determine whether the cells survived after treatment with the compounds, MTT was added to the culture media which were then cultured for another 3 hours. Formed formazane crystals were dissolved using dimethyl sulfoxide (DMSO), and the absorbance of the resulting solution was measured at 560 nm. After the 48-hour culture, […] was indicated as cell viability (%) according to each treated concentration. A cell viability curve graph was plotted and the concentration (GIC50) value of the compound at which the growth was inhibited by 50% was calculated to confirm the inhibition effect of cancer cell proliferation. Also, the cell growth viability (%) when the concentration of the treated biguanide derivative and the metformin hydrochloride as the control were 100 μM was shown.

AMPKα = assay: Measurement of AMPK activation effect (AMPKα Thr172 phosphorylation immunoassay) in MCF7 cells; type: cell-based, human; details: 24 hours; for AMPK activation effect at 10 μM (%) / AMPK activation effect at 50 μM (%): relative to untreated cells; for AMPK activation effect AC150: concentration at which AMPK activation reached 150%
Method: MCF7 cells derived from human breast cancer cells (commercially available from the Korean Cell Line Bank) were used, and the AMPK activation effect of the biguanide derivative was confirmed using an AMPKα immunoassay kit (Invitrogen, Catalog No. KHO0651).
MCF7 cells were cultured in a DMEM medium supplemented with 10% fetal bovine serum. Thereafter, the cultured MCF7 cells were put into a 6-well plate with approximately 5×10^5 cells per well and cultured in an incubator supplied with 5% CO2. Culture media were treated with the derivatives synthesized in the examples at contents of 5, 10 and 50 μM, and then cultured for 24 hours. Metformin hydrochloride was used as the control, and the culture media were treated with 0.05, 0.5, 1, 2, 5 and 10 mM metformin hydrochloride, and then tested in the same manner as described in the derivatives synthesized in the examples. Subsequently, the cells were lysed according to a method presented in the operation manual of the AMPKα immunoassay kit, and 20 μg of a cell lysate was then yielded through protein assay. Thereafter, the AMPK activation effect was obtained by determining the degree of phosphorylation of 172nd threonine residue (Thr172) of the AMPKα from the cell lysate according to the method presented in the operation manual of the AMPKα immunoassay kit. […] A curve graph showing AMPK activation according to the concentration of the treated compounds was plotted based on the obtained AMPKα activation results, the concentration (activation concentration 150, AC150) value of the compound whose AMPK activation reached 150% was calculated using a GraphPad Prism 5.0 program, and the degrees of AMPK activation were obtained when concentrations of the treated biguanide derivatives were 10 μM and 50 μM and the metformin hydrochloride was 50 μM

| Compound | GI50 (HCT116 cells) | melting point | inhibition at 100 µM (HCT116 cells) | AMPK activation effect at 10 μM (%) (AMPKα) | AMPK activation effect at 50 μM (%) (AMPKα) | AMPK activation effect AC150 (AMPKα) |
| --- | --- | --- | --- | --- | --- | --- |
| Cl.N=C(NC(=N)N1CCCC1)Nc1cccc(OC(F)(F)F)c1 [Example 28, N1-pyrrolidine-N5-(3-trifluoromethoxy)phenyl biguanide hydrochloride] | 19 µM | 261 to 262 °C | 97.6% | 158% | 424% | 6.9 µM |
| Cl.N=C(NC(=N)N1CCCCC1)Nc1ccccc1F [Example 15, N1-piperidine-N5-(2-fluoro)phenyl biguanide hydrochloride] | > 100 µM | 155 to 157 °C | 39.5% |  | 100% | >50 µM |
| Cl.N=C(NC(=N)N1CCC1)Nc1ccc(C(F)(F)F)cc1 [Example 25, N1-azetidine-N5-(4-trifluoromethyl)phenyl biguanide hydrochloride] | 27.6 µM | 258 to 259 °C | 96.3% | 99% | 156% | 46.6 µM |
| COc1cccc(NC(=N)NC(=N)N2CCCCC2)c1.Cl [Example 13, N1-piperidine-N5-(3-methoxy)phenyl biguanide hydrochloride] | > 100 µM | 230 to 232 °C | 45.4% | 97% | 300% | 16.0 µM |
| Cl.N=C(NC(=N)N1CCC1)Nc1ccc(OC(F)(F)F)cc1 [Example 31, N1-azetidine-N5-(4-trifluoromethoxy)phenyl biguanide hydrochloride] | 22.9 µM | 257 to 259 °C | 96.5% | 145% | 232% | 15.3 µM |
| CN1CCN(C(=N)NC(=N)Nc2ccc(OC(F)(F)F)cc2)CC1.Cl [Example 35, N1-(4-methyl)piperazine-N5-(4-trifluoromethoxy)phenyl biguanide hydrochloride] | 46.7 µM | 258 to 259 °C | 76.5% | 207% | 542% | 5.0 µM |
| Cl.N=C(NC(=N)N1CCOCC1)Nc1ccc(OC(F)(F)F)cc1 [Example 34, N1-morpholine-N5-(4-trifluoromethoxy)phenyl biguanide hydrochloride] | 47.3 µM | 263 to 264 °C | 98% | 121% | 168% | 33.7 µM |
| Cl.N=C(NC(=N)N1CCCCC1)Nc1cccc(O)c1 [Example 11, N1-piperidine-N5-(3-hydroxy)phenyl biguanide hydrochloride] | > 100 µM | 210 to 212 °C | 29.7% | 127% | 127% | >50 µM |
| Cl.N=C(NC(=N)N1CCCCC1)Nc1cccc(C(F)(F)F)c1 [Example 24, N1-piperidine-N5-(3-trifluoromethyl)phenyl biguanide hydrochloride] | 6.9 µM | 264 to 265 °C | 97.6% | 388% |  | 2.6 µM |

Second part, led by results:

| GI50 (HCT116 cells) | melting point | Compound | inhibition at 100 µM (HCT116 cells) | AMPK activation effect at 10 μM (%) (AMPKα) | AMPK activation effect at 50 μM (%) (AMPKα) | AMPK activation effect AC150 (AMPKα) |
| --- | --- | --- | --- | --- | --- | --- |
| 11.6 µM | 262 to 263 °C | Cl.N=C(NC(=N)N1CCCCC1)Nc1ccc(Cl)cc1Cl [Example 62, N1-piperidine-N5-(2,4-dichloro)phenyl biguanide hydrochloride] | 97.2% | 208% |  | 5.6 µM |
| 2.6 µM | 261 to 262 °C | Cl.N=C(NC(=N)N1CCCCC1)Nc1ccc(OC(F)(F)F)c(Cl)c1 [Example 57, N1-piperidine-N5-(3-chloro-4-trifluoromethoxy)phenyl biguanide hydrochloride] | 96.3% | 345% |  | 3.2 µM |
| 37.1 µM | 264 to 265 °C | CSc1ccc(NC(=N)NC(=N)N2CCCCC2)cc1.Cl [Example 43, N1-piperidine-N5-(4-methylthio)phenyl biguanide hydrochloride] | 98% | 239% | 547% | 4.1 µM |
| 19.8 µM | 260 to 261 °C | Cl.N=C(NC(=N)N1CCC1)Nc1ccc(OC(F)(F)F)c(F)c1 [Example 52, N1-azetidine-N5-(3-fluoro-4-trifluoromethoxy)phenyl biguanide hydrochloride] | 101% | 265% | 740% | 3.3 µM |
| > 100 µM | 253 to 255 °C | CN(C)c1ccc(NC(=N)NC(=N)N2CCCCC2)cc1.Cl [Example 37, N1-piperidine-N5-(4-dimethylamino)phenyl biguanide hydrochloride] | 32.2% | 123% | 286% | 13.9 µM |
| > 100 µM | 251 to 253 °C | CS(=O)(=O)Nc1cccc(NC(=N)NC(=N)N2CCCCC2)c1.Cl [Example 41, N1-piperidine-N5-(3-methylsulfonamide)phenyl biguanide hydrochloride] | 18.8% | 86% | 125% | >50 µM |
| 1.9 µM | 269 to 270 °C | Cl.N=C(NC(=N)N1CCCCC1)Nc1ccc(Cl)c(C(F)(F)F)c1 [Example 47, N1-piperidine-N5-(4-chloro-3-trifluoromethyl)phenyl biguanide hydrochloride] | 96.7% | 169% |  | 7.3 µM |
| 2.9 µM | 205 to 207 °C | Cl.N=C(NC(=N)N1CCCCC1)Nc1cc(Br)cc(OC(F)(F)F)c1 [Example 67, N1-piperidine-N5-(3-bromo-5-trifluoromethoxy)phenyl biguanide hydrochloride] | 97.1% |  |  | 5.0 µM |
| 13.8 µM | 248 to 249 °C | Cl.N=C(NC(=N)N1CCCCC1)Nc1cc(F)c(F)c(F)c1 [Example 68, N1-piperidine-N5-(3,4,5-trifluoro)phenyl biguanide hydrochloride] | 97.6% | 197% |  | 7.2 µM |
| 3.6 µM | 208 to 209 °C | Cl.N=C(NC(=N)N1CCCCC1)Nc1cc(Cl)cc(OC(F)(F)F)c1 [Example 65, N1-piperidine-N5-(3-chloro-5-trifluoromethoxy)phenyl biguanide hydrochloride] | 97.3% |  |  | 5.0 µM |
| 7.3 µM | 254 to 255 °C | Cl.N=C(NC(=N)N1CCC1)Nc1ccc(OC(F)(F)F)c(Cl)c1 [Example 55, N1-azetidine-N5-(3-chloro-4-trifluoromethoxy)phenyl biguanide hydrochloride] | 101% | 342% |  | 2.6 µM |
